The values below come from patent US4537895A, “Isoquinoline derivatives” (EGYT Gyogyszervegyeszeti Gyar, priority 1982, dated 1985).

Structures are written as SMILES. Structures can show the parent of a compound that is named as a salt.

Data set [1] concerns ptosis induced by tetrabenazine. In words: Test 5: inhibition of tetrabenazine-induced ptosis. In kind it is in vivo. To be noted: for TI (Test 5), LD/ED quotient: LD50 / ED of Test 5; for ED50: Mus musculus, sc, read-out: ED, s.c. dose which inhibits the ptosis induced by tetrabenazine in 50% of the mice (Test 5). The method, then: 5. S.c. dose which inhibits the ptosis induced by a dose of 79 umole/kg of tetrabenazine, in 50% of the mice.
(§1) The acute toxicity data are determined in mice. Tests 2-6 are also carried out in mice. The doses are expressed in micromole/kg. The therapeutical index (TI) is the LD/ED quotient.
(§2) Tests 2, 8, 9 and 10 are suitable for the evaluation of the dopaminerg stimulating effect of the test compounds (potential anti-parkinson agent). Tests 4, 5, 6 and 7 give information about the catecholamine-uptake inhibiting effect (potential antidepressive activity).

For data set [2], the system named is blood pressure and nictitating membrane. As to the kind of experiment: Test 7: blood pressure and nictitating membrane effect. The class given is in vivo. The following applies: Felis catus, iv, cats; ">" = inactive in the given dose; read-out: Lowest i.v. dose which still increases the blood pressure and nictitating membrane effect (Test 7). Here is the method:
(§3) Tests 7-10 are carried out in cats and rats, the doses are expressed in micromole/kg.
as §2

Data set [3] relates to catalepsy induced by Haloperidol / tetrabenazine. In words: Comparison of anti-haloperidol (Test 2) and anti-tetrabenazine (Test 4) activity. The class given is in vivo, mice. To be noted: for Quotient of the ED values of Columns 2 and 4: ED Test 2 (haloperidol) : ED Test 4 (tetrabenazine). Here is the method:
(§4) 2. S.c. dose which inhibits the catalepsy induced by a 13 umole/kg dose of Haloperidol, in 50% of the mice.
(§5) 4. S.c. dose which inhibits the catalepsy induced by a 110 umole/kg dose of tetrabenazine, in 50% of the mice.
as §1
On comparing the dopaminerg type anti-haloperidol test and the anti-tetrabenazine activity being characteristic of the antidepressive effect the following can be stated:
The quotient of the ED values of Columns 2 and 4 is the highest for Compound I (55:13=4.2). […] The said quotient is high in the case of Nomifensine (1.6), Compound D (1.8), Compound E (2.7) and Compound F (1.7).

Data set [4] deals with decrease of the rectal temperature caused by reserpine. In words: Test 6: reserpine-induced decrease of rectal temperature. The class given is in vivo. The following applies: for TI (Test 6), LD/ED quotient: LD50 / ED of Test 6; for minimal effective dose: Mus musculus, sc, read-out: ED, lowest s.c. dose which still hinders the decrease of the rectal temperature caused by reserpine (Test 6). Here is the method:
6. The lowest s.c. dose which still hinders the decrease of the rectal temperature caused by the administration of a 1,6 umole/kg dose of reserpine.
as §1, §2

For a further data set, the system named is stereotypy. As to the kind of experiment: Test 8: induction of stereotypy. In kind it is in vivo. The following applies: Rattus norvegicus, sc, rats; ">" = inactive in the given dose; read-out: Lowest s.c. dose which still induces stereotypy (Test 8). The method, then: 8. The lowest s.c. dose which still induces stereotypy, in rats.
as §3, §2

For data set [5], the system named is catalepsy induced by tetrabenazine. In words: Test 4: inhibition of tetrabenazine-induced catalepsy. The following applies: for TI (Test 4), LD/ED quotient: LD50 / ED of Test 4; for ED50: Mus musculus, sc, read-out: ED, s.c. dose which inhibits the catalepsy induced by tetrabenazine in 50% of the mice (Test 4). The class given is in vivo. The method, then:
as §5, §1, §2

Data set [6] in a line: Overall comparison with Nomifensine in the pharmacological tests. The class given is in vivo. The method, then: The pharmacological activity of the compounds of the present invention is determined by the following tests:
as §1, §3

The test system of data set [7] is catalepsy induced by Haloperidol. In words: Test 2: inhibition of haloperidol-induced catalepsy. To be noted: for TI (Test 2), LD/ED quotient: LD50 / ED of Test 2; for ED50: Mus musculus, sc, read-out: ED, s.c. dose which inhibits the catalepsy induced by Haloperidol in 50% of the mice (Test 2). The class given is in vivo. Here is the method:
as §4, §1, §2

A further data set deals with spontaneous motility. In words: Test 3: spontaneous motility. In kind it is in vivo. To be noted: for TI (Test 3), LD/ED quotient: LD50 / ED of Test 3; for minimal effective dose: Mus musculus, ip, read-out: ED, lowest i.p. dose which still decreases the spontaneous motility (Test 3, -). Here is the method:
3. Lowest i.p. dose which still increases or decreases the spontaneous motility of the mice.
as §1
In Test 3 "+=motility increase" and "-=motility decrease."

Data set [8] is described as follows: Acute toxicity, s.c., LD50. More on the design: species or system mice. To be noted: mouse, in vivo; for LD50 at 96 h: sc, mice, 96 hour observation. The method, then: as §1
A further data set deals with prolactine level. As to the kind of experiment: Test 10: decrease of prolactine level in ovariectomised rats. The class given is in vivo. The following applies: Rattus norvegicus, 96 h, after 4 days treatment with oestradiol 0.073 umole/kg, read-out: Dose which induces a significant decrease of the prolactine level (Test 10). Here is the method: 10. The dose which induces a significant decrease of the prolactine level after 4 days treatment with a dose of 0.073 umole/kg of oeastradiol, on three weeks earlier ovariectomised rats.
as §3, §2

For the compound `CCNCC(=O)Nc1cccc2c1CN(C)CC2c1ccc(C)cc1` (stereo not shown) [Compound H, 8-ethylamino-acetyl-amino-2-methyl-4-p-tolyl-1,2,3,4-tetrahydro-isoquinoline maleate], in data set [1], the “TI (Test 5), LD/ED quotient” value stood at 59 and the ED50 came out at 12 µmol/kg. For the same compound, the minimal effective dose in [2] turned out to be 2.2 µmol/kg. For the same compound, the “Quotient of the ED values of Columns 2 and 4” value in data set [3] is given as 0,3. Further, in data set [4], the “TI (Test 6), LD/ED quotient” value is listed as 16 and the minimal effective dose came to 44 µmol/kg. In addition, the minimal effective dose in the data set on stereotypy came out at 183 µmol/kg. In addition, in data set [5], the “TI (Test 4), LD/ED quotient” value was determined as 7 and the ED50 came to 99 µmol/kg. Besides, the “Therapeutical index (in words)” value in [6] (all tests) is “good therapeutical index”. In data set [7], the “TI (Test 2), LD/ED quotient” value is listed as 21 and the ED50 was 33 µmol/kg. For the same compound, in the data set with spontaneous motility, the “TI (Test 3), LD/ED quotient” value is 32 and the minimal effective dose is 22 µmol/kg. Besides, the LD50 (commonly the dose expected to kill half of the subjects tested) at 96 h in data set [8] was determined as 706 µmol/kg.
Take `CCOC(=O)Nc1cccc2c1CN(C)CC2c1ccc(Cl)cc1` (stereo not shown) [Compound I, 8-ethoxycarbonylamino-4-p-chloro-phenyl-2-methyl-1,2,3,4-tetrahydroisoquinoline]: the minimal effective dose in the data set on prolactine level was 26 µmol/kg. In [1], the “TI (Test 5), LD/ED quotient” value is 1360 and the ED50 was found to be 1.6 µmol/kg. Moreover, the minimal effective dose in data set [2] is 1.3 µmol/kg. Further, the “Quotient of the ED values of Columns 2 and 4” value in data set [3] was 4,2. The “Antidepressant versus antiparkinson profile (in words)” value in data set [3] (from quotient ED2:ED4) is listed as “relatively a stronger antidepressant than an antiparkinsone agent”. Further, in data set [4], the “TI (Test 6), LD/ED quotient” value is 84 and the minimal effective dose stood at 26 µmol/kg. Besides, the minimal effective dose in the data set with stereotypy was 21 µmol/kg. In addition, in [5], the “TI (Test 4), LD/ED quotient” value is 167 and the ED50 was determined as 13 µmol/kg. Also, in data set [6] (all tests), the “Activity compared with Nomifensine (in words)” value is “activity is higher than that of Nomifensine”. In addition, in data set [6] (various tests), the “Therapeutical index relative to that of Nomifensine” value is reported as 2-6,8 times higher. Moreover, in [7], the “TI (Test 2), LD/ED quotient” value was determined as 40 and the ED50 was determined as 55 µmol/kg. Further, in the data set on spontaneous motility, the “TI (Test 3), LD/ED quotient” value worked out at 275 and the minimal effective dose was 7.9 µmol/kg. Further, in data set [8], the “Toxicity compared with Nomifensine (in words)” value was “toxicity is much lower” and the LD50 at 96 h amounted to 2180 µmol/kg.
